These results are taken from publication PMC8308736, “Functional Characterization of the Oxantel-Sensitive Acetylcholine Receptor from Trichuris muris” (Pharmaceuticals, 2021).

One assay deals with T1, Tmu-ACR-16-like (Trichuris muris, UniProt A0A5S6R3I6).
T1 construct: full-length subunit (464 amino acids; GenBank MZ322663), homomeric receptor in Xenopus laevis oocytes
Nature of the assay: two-electrode voltage-clamp in Xenopus oocytes co-injected with Xla-ric-3. The assay is classed as cell-based.

The target in a further assay is T2, Tsu-ACR-16-like (Trichuris suis, UniProt A0A890W0I7).
T2 construct: ACR-16-like subunit (GenBank MT386096), homomeric receptor in Xenopus laevis oocytes
T2 sequence (A0A890W0I7 22-461): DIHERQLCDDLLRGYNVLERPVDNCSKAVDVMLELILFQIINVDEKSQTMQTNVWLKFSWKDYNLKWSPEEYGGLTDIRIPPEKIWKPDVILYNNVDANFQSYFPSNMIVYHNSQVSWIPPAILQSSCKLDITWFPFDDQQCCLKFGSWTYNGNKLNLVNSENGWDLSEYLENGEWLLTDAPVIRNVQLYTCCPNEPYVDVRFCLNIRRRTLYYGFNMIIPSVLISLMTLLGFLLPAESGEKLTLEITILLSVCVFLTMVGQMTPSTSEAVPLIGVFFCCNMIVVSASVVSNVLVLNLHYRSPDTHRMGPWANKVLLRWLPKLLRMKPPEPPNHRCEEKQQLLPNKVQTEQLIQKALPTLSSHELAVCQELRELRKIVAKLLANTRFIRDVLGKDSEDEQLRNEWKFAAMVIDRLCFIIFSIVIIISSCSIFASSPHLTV
Described as above. Format: cell-based.

Each structure is given as a SMILES string. Where two headings read alike, the source gives them in different places.

T1 sequence (A0A5S6R3I6 entry or part of it): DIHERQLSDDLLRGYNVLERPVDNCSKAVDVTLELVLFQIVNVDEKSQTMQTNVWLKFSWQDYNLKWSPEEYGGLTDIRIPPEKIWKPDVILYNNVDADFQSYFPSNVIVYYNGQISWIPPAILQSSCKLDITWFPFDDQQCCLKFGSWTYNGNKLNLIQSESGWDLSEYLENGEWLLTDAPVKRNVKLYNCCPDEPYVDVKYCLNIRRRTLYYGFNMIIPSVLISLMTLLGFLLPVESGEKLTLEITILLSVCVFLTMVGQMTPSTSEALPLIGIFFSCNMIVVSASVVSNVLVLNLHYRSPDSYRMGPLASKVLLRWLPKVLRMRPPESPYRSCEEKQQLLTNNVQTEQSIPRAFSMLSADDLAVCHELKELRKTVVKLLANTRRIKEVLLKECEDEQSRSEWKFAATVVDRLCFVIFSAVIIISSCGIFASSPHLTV

As for `CN1CCCN=C1/C=C/c1cccc(O)c1` [oxantel], the EC50 at Tmu-ACR-16-like (read-out: EC50) worked out at 32.7 ± 0.3 µM.
The same measure, in the same setting: under `CC(=O)OCC[N+](C)(C)C` [acetylcholine] stands 31.1 ± 0.3 µM.
On to `Clc1ccc(C2CC3CCC2N3)cn1` (stereo not shown) [epibatidine], for which the EC50 on Tsu-ACR-16-like turned out to be 1.9 ± 0.5 µM; on Tmu-ACR-16-like, 1.7 ± 0.4 µM.
